Consider 34 compounds from the SangsterLogP compilation.

The conditions of the first data set: pH 5.0.
Compound `C[C@@H]1CCC2[C@]3(C)COC(C)(C)O[C@H]3CC[C@]2(C)[C@@]12CCC1(COC(=O)C1)O2` (some centres undefined) returned a logD of 4.24.

`O=C1C[C@@H](c2c(F)cccc2Cl)c2cc3c(cc2N1)OCCO3` returned a pH-dependent lipophilicity (logD) of 3.96.

Turning to `FC(F)Oc1ccc(NC(=S)NC[C@@H]2CCCO2)cc1Cl`, the logD was determined as 3.74.

In the case of `C[C@]12CC[C@@H]3C[C@@]1(C(=O)NCC(F)(F)F)OC[C@@]32C`, the logD stood at 3.11.

`CN1C(=CC(=O)COC(=O)C(c2ccccc2)c2ccccc2)C(C)(C)c2ccccc21` returned a logD of 6.27.

In turn, `CCOc1cc(C(=O)Nc2ccc(OC)c(OC)c2)cc(OCC)c1OCC` displayed a pH-dependent lipophilicity (logD) of 4.11.

As for `CCOC(=O)C1=C(C)OC(N)=C(C#N)[C@H]1c1cccc(I)c1`, the log distribution coefficient (logD) is 4.48.

In turn, `CCCC1=C(C(=O)OCC)[C@H](c2ccc3c(c2)OCO3)NC(=O)N1` showed a logD of 3.59.

Turning to `C[C@@H](OC(=O)c1cccc(C(F)(F)F)c1)C(N)=O`, the logD came out at 2.75.

`COc1ccc([C@H]2CC(=O)C3=C(C2)Nc2ccc4ccccc4c2[C@@H]3c2ccc3c(c2)OCO3)cc1` gave a logD of 5.77.

Turning to `Cc1c(NC(=O)[C@@H]2CCCCN2S(=O)(=O)c2ccc(Cl)cc2)c(=O)n(-c2ccccc2)n1C`, the logD is 3.89.

In the case of `CC(C)CN1C(=O)/C(=C/[C@@H]2CC=CCC2)SC1=S`, the logD was determined as 6.66.

The compound `C[C@@]1(c2ccc(Cl)cc2)NC(=S)N2[C@@H]1NC(=S)N2c1ccc(Cl)cc1` returned a logD of 4.94.

In the case of `COC(=O)[C@H](CCSC)NC(=O)c1cc2c(n(-c3ccccc3)c1=O)CC(C)(C)CC2=O`, the logD amounted to 3.97.

`COC(=O)c1c(NC(=O)Cn2nc(C)c([N+](=O)[O-])c2C)sc2c1CC[C@H](C(C)(C)C)C2`: the logD turned out to be 6.53.

`C[C@@H]1CCCCN1C(=O)CCCCC(=O)N1CCCC[C@H]1C` gave a pH-dependent lipophilicity (logD) of 3.42.

Regarding `CC(=O)Nc1ccc(C(=O)N(Cc2ccco2)C2(C(=O)Nc3c(C)cccc3C)CCCCC2)cc1`, the logD stood at 4.62.

In the case of `CCCCN1C(=O)c2ccc(C(=O)OCC(=O)N[C@H](C)C(C)C)cc2C1=O`, the logD stood at 3.62.

As to `COC(=O)c1ccc(N(C(=O)C(F)(F)F)[C@@H]2C=CS(=O)(=O)C2)cc1`, the logD came out at 2.05.

Staying with this data set, now noted: pH 6.5.
Compound `CCOC(=O)c1[nH]c(C)c(C(=O)OCC(=O)N2CCc3ccccc32)c1C` had a logD of 4.47.

`C[C@H]1CCCC[C@@H]1NC(=O)COc1ncnc2ccccc12` had a logD of 3.11.

`O=C(CN1C(=O)/C(=C2\SC(=S)N(Cc3ccco3)C2=O)c2ccccc21)Nc1ccc(F)cc1` displayed a logD of 6.36.

In the case of `Cc1cccc(NC(=O)C[C@@H]2S/C(=N\c3c(C)cccc3C)N(C)C2=O)c1`, the logD came to 4.75.

Still in this data set, the particulars now being: pH 7.3.
`CC[C@@H](SC1=Nc2ccccc2C2=N[C@@H](CC(C)C)C(=O)N12)C(=O)Nc1ccc2c(c1)OCO2` displayed a logD of 4.85.

`Cc1cc(C)nc(-n2nc(C)c3c2NC2=CC(C)(C)CC(=O)[C@H]2[C@@H]3c2ccco2)n1` came in with a logD of 4.34.

`CC(C)[C@@H](C(=O)Nc1nc(-c2ccc(S(=O)(=O)N3CCOCC3)cc2)cs1)N1C(=O)c2ccccc2C1=O`: the logD amounted to 5.32.

Compound `CCOP(=O)(Cc1ccc(CP(=O)(OCC)OCC)o1)OCC` yielded a logD of 3.25.

The data set is the same for the next values; noted with them: pH 8.0.
In the case of `CCc1cccc(C)c1N(C(=O)Cn1c([C@@H](C)O)nc2ccccc21)[C@@H](C)COC`, the logD stood at 4.48.

The data set is the same for the next values; noted with them: pH 10.0.
Regarding `COc1ccc(/N=C/c2ccc(/C=N/c3ccc(OC)cc3)cc2)cc1`, the logD came out at 5.24.

For the compound `CCSCCOC(=O)C1=C(C)NC2=C(C(=O)C[C@@H](c3cccs3)C2)[C@H]1c1ccc2c(c1)OCO2`, the logD amounted to 5.

The same data set, now with this note: pH 10.5.
Take `CCOc1ccc(N2CN=c3s/c(=C\c4cc(OC)c(OC)cc4[N+](=O)[O-])c(=O)n3C2)cc1`: the logD came out at 4.93.

`CC[C@@H]1CCCCN1C(=O)CSc1nc(C)cc(C)n1` had a pH-dependent lipophilicity (logD) of 3.61.

As for `COc1ccc([C@H]2C(C#N)=C(N)N(c3ccccc3C(F)(F)F)C3=C2C(=O)CCC3)cc1CSc1ccccn1`, the logD amounted to 5.45.

Regarding `N#C/C(=C/c1ccc2c(c1)OCO2)C(=O)N=C1c2ccccc2CN1c1cccc([N+](=O)[O-])c1`, the pH-dependent lipophilicity (logD) turned out to be 5.4.
